Experimental data taken from patent US20230125249A1 (FIRMENICH SA, priority 2017, published 2023).

Tests used:
[1] = target: T1, OR5AN1 olfactory receptor (Homo sapiens, UniProt Q8NGI8); assay: MUSCENONE®/musk dose-response on OR5AN1 in presence and absence of putative modulator (EC50 shift, span); format: cell-based; conditions: enhancer at 250 μM, FIG. 3A
T1 construct: expressed in transfected cells
T1 sequence (Q8NGI8 1-311): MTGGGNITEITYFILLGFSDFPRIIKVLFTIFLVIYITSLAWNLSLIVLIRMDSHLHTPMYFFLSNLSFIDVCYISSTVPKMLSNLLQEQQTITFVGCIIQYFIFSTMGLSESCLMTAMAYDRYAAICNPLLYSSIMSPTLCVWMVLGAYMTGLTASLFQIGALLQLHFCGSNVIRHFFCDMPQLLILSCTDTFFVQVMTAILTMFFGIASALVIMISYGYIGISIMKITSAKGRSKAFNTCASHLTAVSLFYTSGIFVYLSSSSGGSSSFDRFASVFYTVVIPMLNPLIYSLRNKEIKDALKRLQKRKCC
Description: Next, two parallel dose-response experiments to confirm the true enhancement properties of the potential candidates were performed. First, a dose-response of each individual candidate was performed to determine if it was an agonist by itself.
The resulting enhancement was quantified by means of EC50-fold shift (potency increase) and the efficacy span ratio (efficacy increase).
The EC50-fold shift was obtained by dividing the EC50 of MUSCENONE® +compound by the reference EC50 MUSCENONE® alone. The span ratio was obtained by dividing the span of MUSCENONE®+compound by the reference span of MUSCENONE® alone.

[2] = target: T1, OR5AN1 olfactory receptor; assay: Dose-response of individual candidate alone (intrinsic agonist activity) on OR5AN1; format: cell-based
Description: 15 candidates, marked as “enhancement” in Table 2 were identified. Strikingly, 80% of these putative enhancers (12/15) belonged to the same class of chemicals: unsaturated aliphatic aldehydes. Next, two parallel dose-response experiments to confirm the true enhancement properties of the potential candidates were performed. First, a dose-response of each individual candidate was performed to determine if it was an agonist by itself. Second, a MUSCENONE® dose-response curve in the presence and absence of a 250 μM concentration of the putative modulator was assessed for EC50 shifts.

[3] = target: T1, OR5AN1 olfactory receptor; assay: Allosteric EC50 shift analysis: MUSCENONE® dose response with serial concentrations of enhancer; format: cell-based
Description: (§1) The level of enhancement of the OR5AN1 olfactory receptor activation was evaluated at distinct concentrations of the enhancer. […] The curves were obtained by applying the simplified Allosteric EC50 shift effect equation (available in Prism5, v. 5.02) derived from the ternary complex interaction model.

Olfr1440 = target: T2, Olfr1440 (Mus musculus, UniProt Q8VFV4); assay: Control enhancement experiment on mouse ortholog receptor; format: cell-based
T2 construct: expressed in transfected cells
T2 sequence (Q8VFV4 1-315): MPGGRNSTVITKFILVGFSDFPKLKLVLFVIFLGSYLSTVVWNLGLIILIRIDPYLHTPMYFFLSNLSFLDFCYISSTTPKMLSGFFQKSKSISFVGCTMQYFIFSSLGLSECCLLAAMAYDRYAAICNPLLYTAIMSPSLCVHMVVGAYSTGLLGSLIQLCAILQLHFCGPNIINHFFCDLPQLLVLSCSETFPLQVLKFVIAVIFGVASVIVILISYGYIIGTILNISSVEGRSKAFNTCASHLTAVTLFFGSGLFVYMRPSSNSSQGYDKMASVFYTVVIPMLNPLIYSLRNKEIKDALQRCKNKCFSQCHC
Description: as §1
Furthermore and as a control, a similar experiment was performed on the mouse MUSCENONE® responsive odorant receptor Olfr1440, the ortholog of OR5AN1.

OR5AN1 allele 3 = assay: Cell based assay of hypofunctional OR5AN1 allele 3 with and without enhancer; parameters: species or system human; conditions: allele 3, presence vs absence of enhancer
OR5AN1 allele 4 = assay: Cell based assay of hypofunctional OR5AN1 allele 4 with and without enhancer; parameters: species or system human; conditions: allele 4, presence vs absence of enhancer

CCCCCCCCCC/C=C/C=O [tridecylenic aldehyde]
Maximal activation level (span) of MUSCENONE® [1]: increased span | Activation of OR5AN1 by the compound by itself [2]: did not activate the OR5AN1 olfactory receptor by itself | Activation by compound alone relative to the MUSCENONE® activation window ([2]; above approximately 100 μM): less than 8% | α (cooperativity factor) ([3]; Allosteric EC50 shift model, enhancer 0 to 1 mM): 15.7 | Kb ([3]; read-out: KB (equilibrium dissociation constant)): 259 µM | Effect on Olfr1440 MUSCENONE®-induced activation (Olfr1440): slight inhibition | Activity span-ratio (OR5AN1 allele 3): 2.02 | Activity span-ratio (OR5AN1 allele 4): 2.16
